According to patent US9045463B2, “Phenyl ethynyl derivatives as hepatitis C virus inhibitors” (Janssen R&D Ireland, priority 2009, dated 2015):

What follows are compounds tested on HCV replicon (wild type NS3-NS5B regions of HCV type 1b) in Huh-7 luc/neo cells (assay: HCV replicon assay (Huh-Luc cells, luciferase read-out)). Conditions: Hepatitis C virus, Huh-7, 72 h, three days incubation, luciferase activity.
Assay type: cell-based
Excerpt: The in vitro antiviral activity against HCV of the compounds of formula I can be tested in a cellular HCV replicon system based on Lohmann et al. (1999) Science 285:110-113, with the further modifications described by Krieger et al. (2001) Journal of Virology 75: 4614-4624 (incorporated herein by reference), which is further exemplified in the examples section. This model, while not a complete infection model for HCV, is widely accepted as the most robust and efficient model of autonomous HCV RNA replication currently available. It will be appreciated that it is important to distinguish between compounds that specifically interfere with HCV functions from those that exert cytotoxic or cytostatic effects in the HCV replicon model, and as a consequence cause a decrease in HCV RNA or linked reporter enzyme concentration. Assays are known in the field for the evaluation of cellular cytotoxicity based for example on the activity of mitochondrial enzymes using fluorogenic redox dyes such as resazurin. Furthermore, cellular counter screens exist for the evaluation of non-selective inhibition of linked reporter gene activity, such as firefly luciferase. Appropriate cell types can be equipped by stable transfection with a luciferase reporter gene whose expression is dependent on a constitutively active gene promoter, and such cells can be used as a counter-screen to eliminate non-selective inhibitors.
The compounds of formula (I) were examined for inhibitory activity in the HCV replicon. This cellular assay is based on a bicistronic expression construct, as described by Lohmann et al. (1999) Science vol. 285 pp. 110-113 with modifications described by Krieger et al. (2001) Journal of Virology 75: 4614-4624, in a multi-target screening strategy.
In essence, the method was as follows:
The assay utilized the stably transfected cell line Huh-7 luc/neo (hereafter referred to as Huh-Luc). This cell line harbors an RNA encoding a bicistronic expression construct comprising the wild type NS3-NS5B regions of HCV type 1b translated from an Internal Ribosome Entry Site (IRES) from encephalomyocarditis virus (EMCV), preceded by a reporter portion (FfL-luciferase), and a selectable marker portion (neo^R, neomycine phosphotransferase). The construct is flanked by 5′ and 3′ NTRs (non-translated regions) from HCV type 1b. Continued culture of the replicon cells in the presence of G418 (neo^R) is dependent on the replication of the HCV RNA. The stably transfected replicon cells that express HCV RNA, which replicates autonomously and to high levels, encoding inter alia luciferase, were used for screening the antiviral compounds.
The replicon cells were plated in 384 well plates in the presence of the test and control compounds which were added in various concentrations. Following an incubation of three days, HCV replication was measured by assaying luciferase activity (using standard luciferase assay substrates and reagents and a Perkin Elmer ViewLux™ ultraHTS microplate imager). Replicon cells in the control cultures have high luciferase expression in the absence of any inhibitor. The inhibitory activity of the compound on luciferase activity was monitored on the Huh-Luc cells, enabling a dose-response curve for each test compound. EC50 values were then calculated, which represent the amount of compound required to decrease the level of detected luciferase activity by 50%, or more specifically, to reduce the ability of the genetically linked HCV replicon RNA to replicate.

Row | Compound | EC50 [nM]
1 | O=C(Cc1cccnc1)N1CCC[C@H]1c1ncc(C#Cc2ccc(-c3cnc([C@@H]4CCCN4C(=O)Cc4cccnc4)[nH]3)cc2)[nH]1 [Compound 2] | 1.5
2 | O=C(Nc1ccccc1)N1CCC[C@H]1c1ncc(C#Cc2ccc(-c3cnc([C@@H]4CCCN4C(=O)Nc4ccccc4)[nH]3)cc2)[nH]1 [Compound 3] | 810
3 | O=C(CC1CCCCC1)N1CCC[C@H]1c1ncc(C#Cc2ccc(-c3cnc([C@@H]4CCCN4C(=O)CC4CCCCC4)[nH]3)cc2)[nH]1 [Compound 4] | 130
4 | CC(C)[C@@H](C(=O)N1CCC[C@H]1c1ncc(C#Cc2ccc(-c3cnc([C@@H]4CCCN4C(=O)[C@H](C(C)C)N(C)C)[nH]3)cc2)[nH]1)N(C)C [Compound 21] | 36
5 | COC(=O)N[C@H](C(=O)N1CCC[C@H]1c1ncc(C#Cc2ccc(-c3cnc([C@@H]4CCCN4C(=O)[C@@H](NC(=O)OC)C(C)C)[nH]3)cc2)[nH]1)C(C)C [Compound 28] | 0.036
6 | CC(=O)N[C@@H](C(=O)N1CCC[C@H]1c1ncc(C#Cc2ccc(-c3cnc([C@@H]4CCCN4C(=O)[C@H](NC(C)=O)c4ccccc4)[nH]3)cc2)[nH]1)c1ccccc1 [Compound 32] | < 0.48
7 | CNC(=O)N[C@H](C(=O)N1CCC[C@H]1c1ncc(C#Cc2ccc(-c3cnc([C@@H]4CCCN4C(=O)[C@@H](NC(=O)NC)C(C)C)[nH]3)cc2)[nH]1)C(C)C [Compound 36] | 0.69
8 | O=C([C@@H](c1ccccc1)N1CCCCC1)N1CCC[C@H]1c1ncc(C#Cc2ccc(-c3cnc([C@@H]4CCCN4C(=O)[C@@H](c4ccccc4)N4CCCCC4)[nH]3)cc2)[nH]1 [Compound 37] | 0.03
